Reference: EP0185020B1, “NI[…] PREPARATION THEREOF AND UTILIZATION THEREOF IN ANTICANCEROUS CHEMIOTHERAPY” (CENTRE NATIONAL DE LA RECHERCHE SCIENTIFIQUE (CNRS), priority 1984, dated 1985)

Legend:
[1] = test system: souche leucémique L1210; assay: Antitumour activity on L1210 leukaemia inoculated i.p. in mice (ICIG, Example 11); format: in vivo, souris B6D2F1/OLA; settings: for indices I: dose not given; for survie à 60 jours: à différentes doses
Source text: L'activité oncostatique de ces dérivés nitrosés a été déterminée à l'ICIG de Villejuif (Service du Pr. Mathe), en suivant un protocole expérimental décrit: M. Hayat et Coll., Cancer Chemother. Phar- macol., 1979, 3,217-221, R. Maral et Coll., Eur. J. Med. Chem., soumis pour publication.
(§1) Des souris B6D2F1/OLA, mâles, sont inoculées avec 10^5 cellules de la souche leucémique L1210 par voie intrapéritonéale au jour 0 et divisées en groupes. Le premier est le groupe témoin et les autres sont traités avec les drogues à différentes concentrations au jour 1,5 et 9. Les composés sont injectés en suspension dans l'huile d'olive. La mortalité des animaux est observée et l'autopsie indique si elle est due à la leucémie ou à l'action toxique des produits.
(§2) La dose létale 50% (DL50 aiguë) est déterminée en tenant compte de la mortalité survenue avant le huitième jour chez les animaux traités au jour J: 1. La médiane de survie des animaux traités (mT) et des animaux témoin (mC) a été établie et le test statistique non paramétrique de Wilcoxon a été utilisé. Les résultats sont considérés positifs si l'indice I (I = ^mT x 100) est supérieur à 125 et le test mC significatif à p ≼ 0,05. La valeur ∞ indique que 50% ou plus des animaux sont survivants au jour +60.
Plus l'intervalle des doses à efficacité maximale, ayant donc I = ∞, est important, plus le produit est doué d'une activité intéressante sur la leucémie L1210.

[2] = Acute lethal dose 50% (DL50 aiguë), i.p.; format: in vivo, souris B6D2F1/OLA; settings: for DL 50: i.p., mortality before day 8 in animals treated on day 1, 11520 min
Source text: as §1, §2

SMILES	I = T/c × 100 ([1]; 0,8 mg/kg i.p., jours 1,5,9)	I = T/c × 100 ([1]; 0,32 mg/kg i.p., jours 1,5,9)	I = T/c × 100 ([1]; 2 mg/kg i.p., jours 1,5,9)	% de survivants à 60 jours ([1]; 5 mg/kg i.p., jours 1,5,9)	I = T/c × 100 ([1]; 5 mg/kg i.p., jours 1,5,9)	% de survivants à 60 jours ([1]; 10 mg/kg i.p., jours 1,5,9)	I = T/c × 100 ([1]; 10 mg/kg i.p., jours 1,5,9)	% de survivants à 60 jours ([1]; 12,5 mg/kg i.p., jours 1,5,9)	I = T/c × 100 ([1]; 12,5 mg/kg i.p., jours 1,5,9)	indices I [1]	survie à 60 jours [1]	DL 50 [2]	I = T/c × 100 ([1]; 15 mg/kg i.p., jours 1,5,9)	other results
O=NN(CCCl)C(=O)NCCS [(1) ICIG 2016, N-[N-(chloro-2 éthyl) N-nitrosocarbamoyl] cystéamine]	162	265	188	100%	∞ (La valeur ∞ indique que 50% ou plus des animaux sont survivants au jour +60)	100%	∞ (La valeur ∞ indique que 50% ou plus des animaux sont survivants au jour +60)	100%	∞ (La valeur ∞ indique que 50% ou plus des animaux sont survivants au jour +60)	infini	100%	19 mg/kg		% de survivants à 60 jours ([1]; 15 mg/kg i.p., jour + 1): 100%; I = T/c × 100 ([1]; 15 mg/kg i.p., jour + 1): ∞ (La valeur ∞ indique que 50% ou plus des animaux sont survivants au jour +60)
CSCCNC(=O)N(CCCl)N=O [(3) ICIG 2017, S-méthyl N-[N-(chloro-2 éthyl)N-nitrosocarbamoyl] cystéamine]	167	133	158	100%	∞ (La valeur ∞ indique que 50% ou plus des animaux sont survivants au jour +60)			87%	∞ (La valeur ∞ indique que 50% ou plus des animaux sont survivants au jour +60)	infini	100%	22 mg/kg	156	
CC(=O)SCCNC(=O)N(CCCl)N=O [(5) ICIG 2018, S-acétyl N-[N-(chloro-2 éthyl) N-nitrosocarbamoyl] cystéamine]				14%	217	100%	∞ (La valeur ∞ indique que 50% ou plus des animaux sont survivants au jour +60)	80%	∞ (La valeur ∞ indique que 50% ou plus des animaux sont survivants au jour +60)	infini	100%	25 mg/kg	490	I = T/c × 100 ([1]; 0,64 mg/kg i.p., jours 1,5,9): 100; I = T/c × 100 ([1]; 4 mg/kg i.p., jours 1,5,9): 158; % de survivants à 60 jours ([1]; 15 mg/kg i.p., jours 1,5,9): 25%; I = T/c × 100 ([1]; 20 mg/kg i.p., jours 1,5,9): 211; I = T/c × 100 ([1]; 1,6 mg/kg i.p., jours 1,5,9): 117
O=NN(CCCl)C(=O)NCCSC(c1ccccc1)(c1ccccc1)c1ccccc1 [(9) ICIG 2069, S-trityl N-[N-(chloro-2 éthyl) N-nitrosocarbamoyl] cystéamine]														I = T/c × 100 ([1]; 250 mg/kg i.p., jours 1,5,9, résultats partiels): > 278; I = T/c × 100 ([1]; 625 mg/kg i.p., jours 1,5,9, résultats partiels): > 278; toxicité, in words [2]: n'est pas toxique
